One experiment has as its target T1, PI3K alpha (Homo sapiens, UniProt P42336).
T1 construct: His tag (C); made in house; host or cells: baculovirus; Tn5 (Trichoplusia ni) or TiniPro insect cells
The experiment can be described thus: Enzymatic PI3K alpha isoform inhibition (lipid kinase activity, Kinase-Glo). As to conditions: enzymatic assay. Type of experiment: biochemical. In short, it runs like this:
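Lipid kinase reaction with 10 nM PI3Kα, 1 μM ATP and 10 μg/mL phosphatidylinositol in pH 7.5 Tris with MgCl2, NaCl, CHAPS and DTT, run 60 min at room temperature. Remaining ATP read by Kinase-Glo luminescence. IC50 from 8-point 4-parameter logistic fits.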
(Kinase-Glo measures the ATP left after a reaction by luminescence.)

The next experiment deals with T2, PI3K delta (Homo sapiens, UniProt O00329).
T2 construct: for the full-length p110-d subunit are generated and fused by overlapping PCR; His tag (C); made in house; host or cells: baculovirus; Tn5 (Trichoplusia ni) or TiniPro insect cells
The experiment can be described thus: Enzymatic PI3K delta isoform inhibition (lipid kinase activity, Kinase-Glo). Type of experiment: biochemical. As to conditions: enzymatic assay. In short, it runs like this: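 Preferred format: PI3Kδ 10 nM with PI 10 μg/mL and ATP 1 μM in Tris 10 mM pH 7.5, MgCl2 3 mM, NaCl 50 mM, CHAPS, DTT; 60 min at RT, 8 concentrations. ATP depletion read by Kinase-Glo luminescence; IC50 from four-parameter logistic fit.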

T2 sequence (O00329 with tags, fused parts or gaps limits assumed): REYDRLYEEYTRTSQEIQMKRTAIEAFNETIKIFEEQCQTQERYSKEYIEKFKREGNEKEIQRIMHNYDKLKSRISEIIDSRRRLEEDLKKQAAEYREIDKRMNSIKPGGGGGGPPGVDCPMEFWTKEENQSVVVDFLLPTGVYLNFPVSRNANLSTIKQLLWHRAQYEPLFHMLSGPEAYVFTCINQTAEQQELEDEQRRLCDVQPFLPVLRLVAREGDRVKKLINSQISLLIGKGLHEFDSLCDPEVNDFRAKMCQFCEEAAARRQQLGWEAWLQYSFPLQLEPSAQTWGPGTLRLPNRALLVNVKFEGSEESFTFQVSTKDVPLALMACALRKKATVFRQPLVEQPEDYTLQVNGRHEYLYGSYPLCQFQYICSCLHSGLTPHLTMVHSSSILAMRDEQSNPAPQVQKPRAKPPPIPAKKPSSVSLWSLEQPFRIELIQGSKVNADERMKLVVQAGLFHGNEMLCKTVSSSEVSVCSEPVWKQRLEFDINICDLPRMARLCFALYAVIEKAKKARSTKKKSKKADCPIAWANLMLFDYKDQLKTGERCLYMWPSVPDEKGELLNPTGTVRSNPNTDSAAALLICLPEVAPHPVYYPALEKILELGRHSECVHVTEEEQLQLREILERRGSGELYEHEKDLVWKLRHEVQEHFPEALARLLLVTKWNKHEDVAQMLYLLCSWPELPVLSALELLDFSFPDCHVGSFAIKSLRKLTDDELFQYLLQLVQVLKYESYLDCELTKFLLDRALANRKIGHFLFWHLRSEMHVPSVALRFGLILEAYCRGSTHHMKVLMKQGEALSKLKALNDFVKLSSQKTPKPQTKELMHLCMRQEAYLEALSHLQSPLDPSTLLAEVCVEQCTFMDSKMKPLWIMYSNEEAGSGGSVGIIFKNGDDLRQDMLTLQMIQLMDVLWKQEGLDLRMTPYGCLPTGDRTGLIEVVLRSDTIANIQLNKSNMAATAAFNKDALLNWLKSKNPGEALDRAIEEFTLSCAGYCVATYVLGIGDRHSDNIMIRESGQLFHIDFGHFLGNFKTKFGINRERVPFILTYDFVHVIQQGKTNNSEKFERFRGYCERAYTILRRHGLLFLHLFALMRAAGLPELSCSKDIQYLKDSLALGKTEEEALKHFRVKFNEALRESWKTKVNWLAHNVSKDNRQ
T1 sequence (P42336 with tags, fused parts or gaps limits assumed): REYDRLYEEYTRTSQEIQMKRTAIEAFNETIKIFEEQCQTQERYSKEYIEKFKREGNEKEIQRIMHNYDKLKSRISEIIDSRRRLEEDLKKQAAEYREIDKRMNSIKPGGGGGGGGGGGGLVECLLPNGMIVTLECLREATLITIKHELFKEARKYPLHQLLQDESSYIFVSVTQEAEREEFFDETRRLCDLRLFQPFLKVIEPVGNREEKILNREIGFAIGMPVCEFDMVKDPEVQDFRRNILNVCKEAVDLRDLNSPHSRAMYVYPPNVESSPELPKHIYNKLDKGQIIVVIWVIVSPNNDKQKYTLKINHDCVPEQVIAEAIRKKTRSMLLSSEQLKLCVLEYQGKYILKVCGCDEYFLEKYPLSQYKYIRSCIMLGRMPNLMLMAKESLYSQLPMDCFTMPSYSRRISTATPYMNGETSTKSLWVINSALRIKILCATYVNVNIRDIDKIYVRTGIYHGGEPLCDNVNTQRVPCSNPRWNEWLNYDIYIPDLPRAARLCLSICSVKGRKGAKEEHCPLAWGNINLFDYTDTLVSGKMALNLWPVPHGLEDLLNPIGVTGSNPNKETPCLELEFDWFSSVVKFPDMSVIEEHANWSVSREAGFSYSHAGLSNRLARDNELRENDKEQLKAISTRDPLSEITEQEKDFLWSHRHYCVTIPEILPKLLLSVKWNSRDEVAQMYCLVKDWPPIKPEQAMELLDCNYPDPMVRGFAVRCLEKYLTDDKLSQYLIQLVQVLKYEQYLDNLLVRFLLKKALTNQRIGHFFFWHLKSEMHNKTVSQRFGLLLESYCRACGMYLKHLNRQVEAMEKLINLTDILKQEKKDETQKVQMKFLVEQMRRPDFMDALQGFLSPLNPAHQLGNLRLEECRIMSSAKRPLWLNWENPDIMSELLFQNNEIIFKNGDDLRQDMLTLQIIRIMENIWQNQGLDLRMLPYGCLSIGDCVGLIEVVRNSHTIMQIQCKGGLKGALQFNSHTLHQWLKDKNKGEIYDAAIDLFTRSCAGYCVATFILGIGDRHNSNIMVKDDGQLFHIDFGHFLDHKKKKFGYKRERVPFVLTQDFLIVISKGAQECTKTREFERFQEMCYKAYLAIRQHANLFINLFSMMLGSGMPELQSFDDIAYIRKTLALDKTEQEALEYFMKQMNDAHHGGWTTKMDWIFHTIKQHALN

As for `COc1ncc(-c2ccnc3ccc(O[C@H]4CCN(C(=O)C5CCS(=O)(=O)CC5)C4)cc23)cc1Cl` [Example A1, {(S)-3-[4-(5-Chloro-6-methoxy-pyridin-3-yl)-quinolin-6-yloxy]-pyrrolidin-1-yl}-(1,1-dioxo-hexahydro-1lambda*6*-thiopyran-4-yl)-methanone], the IC50 at PI3K alpha is 77 nM; on PI3K delta it was < 3 nM.

Consider `COc1ncc(-c2ccnc3ccc(O[C@H]4CCN(C(=O)C5CCS(=O)(=O)CC5)C4)cc23)cc1C(F)F` [Example A6, {(S)-3-[4-(5-Difluoromethyl-6-methoxy-pyridin-3-yl)-quinolin-6-yloxy]-pyrrolidin-1-yl}-(1,1-dioxo-hexahydro-1lambda*6*-thiopyran-4-yl)-methanone], for which the IC50 on PI3K alpha turned out to be 53 nM; at PI3K delta, 4 nM.

As for `COc1ncc(-c2ccnc3ccc(O[C@H]4CCN(C(=O)[C@@H]5CCN(C(C)=O)C5)C4)cc23)cc1C` [Example A10, 1-((R)-3-{(S)-3-[4-(6-Methoxy-5-methyl-pyridin-3-yl)-quinolin-6-yloxy]-pyrrolidine-1-carbonyl}-pyrrolidin-1-yl)-ethanone], the IC50 at PI3K alpha was 1360 nM; on PI3K delta, 5 nM.

`COc1ncc(-c2ccnc3ccc(O[C@H]4CCN(C(=O)C5CCS(=O)(=O)CC5)C4)cc23)cc1C` [Example A15, (1,1-Dioxo-hexahydro-1lambda*6*-thiopyran-4-yl)-{(S)-3-[4-(6-methoxy-5-methyl-pyridin-3-yl)-quinolin-6-yloxy]-pyrrolidin-1-yl}-methanone]: the IC50 at PI3K alpha is 186 nM; at PI3K delta it was 7 nM.

As to `COc1ncc(-c2ccnc3ccc(O[C@H]4CCN(C(=O)[C@@H]5CCN(C(C)=O)C5)C4)cc23)cc1C(F)F` [Example A24, 1-((R)-3-{(S)-3-[4-(5-Difluoromethyl-6-methoxy-pyridin-3-yl)-quinolin-6-yloxy]-pyrrolidine-1-carbonyl}-pyrrolidin-1-yl)-ethanone], the IC50 on PI3K alpha stood at 67 nM; at PI3K delta, 12 nM.

For `CCC(=O)N1CC[C@H](Oc2ccc3nccc(-c4cnc(S(C)(=O)=O)c(C)c4)c3c2)C1` [Example A25, 1-{(S)-3-[4-(6-Methanesulfonyl-5-methyl-pyridin-3-yl)-quinolin-6-yloxy]-pyrrolidin-1-yl}-propan-1-one], the IC50 on PI3K alpha is 821 nM; at PI3K delta, 12 nM.

For `COc1ncc(-c2ccnc3ccc(O[C@H]4CCN(C(=O)[C@@H]5CCN(C(C)=O)C5)C4)c(C)c23)cc1C(F)F` [Example B1, 1-((R)-3-{(S)-3-[4-(5-Difluoromethyl-6-methoxy-pyridin-3-yl)-5-methylquinolin-6-yloxy]-pyrrolidine-1-carbonyl}-pyrrolidin-1-yl)-ethanone], the IC50 turned out to be 63 nM on PI3K alpha and 5 nM at PI3K delta.

In the case of `COc1ncc(-c2ccnc3ccc(O[C@H]4CCN(C(=O)C5CCS(=O)(=O)CC5)C4)c(C)c23)cc1C` [Example B3, (1,1-Dioxo-hexahydro-1lambda*6*-thiopyran-4-yl)-{(S)-3-[4-(6-methoxy-5-methyl-pyridin-3-yl)-5-methyl-quinolin-6-yloxy]-pyrrolidin-1-yl}-methanone], the IC50 at PI3K alpha was 498 nM; at PI3K delta, 5 nM.

For the compound `COc1ncc(-c2ccnc3cc(F)c(O[C@H]4CCN(C(=O)C5CCS(=O)(=O)CC5)C4)cc23)cc1C` [Example C1, (1,1-Dioxo-hexahydro-1lambda*6*-thiopyran-4-yl)-{(S)-3-[7-fluoro-4-(6-methoxy-5-methyl-pyridin-3-yl)-quinolin-6-yloxy]-pyrrolidin-1-yl}-methanone], the IC50 was determined as 3110 nM at PI3K alpha and 302 nM at PI3K delta.

For the compound `Cc1cc(-c2ccnc3cc(F)c(O[C@H]4CCN(C(=O)C5CCOCC5)C4)cc23)cnc1S(C)(=O)=O` [Example C2, {(S)-3-[7-Fluoro-4-(6-methanesulfonyl-5-methyl-pyridin-3-yl)-quinolin-6-yloxy]-pyrrolidin-1-yl}-(tetrahydro-pyran-4-yl)-methanone], the half-inhibitory concentration (IC50) at PI3K alpha is 5680 nM; on PI3K delta it was 332 nM.

A word on the IC50: it is the concentration that gives 50% inhibition.

The values are drawn from patent US20150148377A1, “Quinoline Derivatives” (NOVARTIS AG, priority 2011, published 2015).
